Data from ChEMBL document CHEMBL1201862, “PubChem BioAssay data set” (2004).
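Dose response: 5 concentrations. Exposure: 48 h. Format: 96-well plates. Endpoint: linear interpolation; highest concentration if not reached. The concentration for 50% growth inhibition is given as GI50.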 The source made the active and inactive calls. No stated cut-off is given here; in the data, active = GI50 up to about 1.1 µM and inactive = higher.

Assays:
Experiment in all cases: growth of human tumour cells (NCI), 48 h
MDA-MB-231 = tested on: MDA-MB-231
TK-10 = tested on: TK-10
OVCAR-8 = tested on: OVCAR-8
HT-29 = tested on: HT-29
A549 = tested on: A549
NCI-H522 = tested on: NCI-H522
SF-268 = tested on: SF-268
MDA-N = tested on: MDA-N
NCI-H226 = tested on: NCI-H226
LOX IMVI = tested on: LOX IMVI
NCI/ADR-RES = tested on: NCI/ADR-RES
HCT-15 = tested on: HCT-15
DU-145 = tested on: DU-145
SW-620 = tested on: SW-620
PC-3 = tested on: PC-3
MOLT-4 = tested on: MOLT-4
NCI-H460 = tested on: NCI-H460
MDA-MB-435 = tested on: MDA-MB-435
SK-OV-3 = tested on: SK-OV-3
CAKI-1 = tested on: CAKI-1
A498 = tested on: A498
NCI-H23 = tested on: NCI-H23
T47D = tested on: T47D
KM12 = tested on: KM12
RXF 393 = tested on: RXF 393
HOP-62 = tested on: HOP-62
SF-539 = tested on: SF-539
COLO 205 = tested on: COLO 205
SK-MEL-28 = tested on: SK-MEL-28
OVCAR-4 = tested on: OVCAR-4
K562 = tested on: K562
SR = tested on: SR
UO-31 = tested on: UO-31
SNB-75 = tested on: SNB-75
IGROV-1 = tested on: IGROV-1
Hs-578T = tested on: Hs-578T
SK-MEL-2 = tested on: SK-MEL-2
OVCAR-5 = tested on: OVCAR-5
CCRF-CEM = tested on: CCRF-CEM
ACHN = tested on: ACHN
SNB-19 = tested on: SNB-19
UACC-257 = tested on: UACC-257
UACC-62 = tested on: UACC-62
U-251 = tested on: U-251
OVCAR-3 = tested on: OVCAR-3
SF-295 = tested on: SF-295
M14 = tested on: M14
HL-60 = tested on: HL-60
SN12C = tested on: SN12C
HCT-116 = tested on: HCT-116
Malme-3M = tested on: Malme-3M
SK-MEL-5 = tested on: SK-MEL-5
RPMI-8226 = tested on: RPMI-8226
786-0 = tested on: 786-0
HCC 2998 = tested on: HCC 2998
EKVX = tested on: EKVX
MCF7 = tested on: MCF7

Measured: GI50

COc1cc(OC)c2c(c1OC)OCC(Cc1ccc(O)cc1)C2=O (configuration not stated)
> 25 µM: HCT-15
inactive: MDA-MB-231 > 25 µM | TK-10 > 25 µM | OVCAR-8 > 25 µM | HT-29 > 25 µM | A549 > 25 µM | NCI-H522 > 25 µM | SF-268 > 25 µM | MDA-N > 25 µM | NCI-H226 > 25 µM | LOX IMVI > 25 µM | NCI/ADR-RES > 25 µM | DU-145 > 25 µM | SW-620 > 25 µM | PC-3 > 25 µM | MOLT-4 > 25 µM | NCI-H460 > 25 µM | MDA-MB-435 > 25 µM | SK-OV-3 > 25 µM | CAKI-1 > 25 µM | A498 > 25 µM | NCI-H23 > 25 µM | T47D 8.3 µM | KM12 > 25 µM | RXF 393 20.3 µM | HOP-62 > 25 µM | SF-539 > 25 µM | COLO 205 > 25 µM | SK-MEL-28 > 25 µM | OVCAR-4 > 25 µM | K562 > 25 µM | SR > 25 µM | UO-31 > 25 µM | SNB-75 > 25 µM | IGROV-1 > 25 µM | Hs-578T > 25 µM | SK-MEL-2 > 25 µM | OVCAR-5 > 25 µM | CCRF-CEM > 25 µM | ACHN > 25 µM | SNB-19 > 25 µM | UACC-257 > 25 µM | UACC-62 > 25 µM | U-251 > 25 µM | OVCAR-3 21 µM | SF-295 > 25 µM | M14 > 25 µM | HL-60 11.3 µM | SN12C > 25 µM | HCT-116 > 25 µM | Malme-3M > 25 µM | SK-MEL-5 19.8 µM | RPMI-8226 > 25 µM | 786-0 > 25 µM

CCCCCCCCCC[C@@H](OC(C)=O)[C@@H]1CC[C@@H]([C@@H]2CC[C@@H]([C@@H](O)CC#C/C=C/CCCCCCC[C@@]3(Sc4ccccc4)C[C@H](C)OC3=O)O2)O1
active: NCI-H23 0.968 µM
> 10 µM: HCT-15
inactive: MDA-MB-231 > 10 µM | TK-10 > 10 µM | OVCAR-8 > 10 µM | HCC 2998 > 10 µM | HT-29 > 10 µM | A549 > 10 µM | SF-268 > 10 µM | MDA-N > 10 µM | LOX IMVI > 10 µM | DU-145 > 10 µM | SW-620 > 10 µM | PC-3 > 10 µM | MOLT-4 > 10 µM | SK-OV-3 > 10 µM | CAKI-1 > 10 µM | T47D 7.46 µM | EKVX > 10 µM | KM12 > 10 µM | RXF 393 > 10 µM | HOP-62 > 10 µM | COLO 205 > 10 µM | SK-MEL-28 > 10 µM | K562 9.89 µM | SR > 10 µM | SNB-75 > 10 µM | IGROV-1 > 10 µM | CCRF-CEM > 10 µM | UACC-257 3.08 µM | UACC-62 > 10 µM | MCF7 > 10 µM | SF-295 > 10 µM | M14 > 10 µM | HL-60 > 10 µM | SN12C > 10 µM | Malme-3M > 10 µM | SK-MEL-5 4.57 µM | RPMI-8226 > 10 µM | 786-0 > 10 µM

CC(C)=CCC1=C(O)C(=O)c2ccccc2C1=O
inactive: HCC 2998 > 100 µM | NCI-H226 > 100 µM | EKVX > 100 µM
